How the values were obtained:
[1] = Inhibition of (Le(a)Le(x))14-BSA conjugate binding to mouse Anti-Le(a) monoclonal antibody SPM 522 preincubated with mAb for 1 hr followed by incubation with immobilized antigen BSA-conjugate for 3 hrs by competitive ELISA
[2] = organism: Mus musculus; test: Inhibition of (Le(a)Le(x))14-BSA conjugate binding to mouse Anti-Le(a) monoclonal antibody SPM 522 assessed as change in free energy preincubated with mAb for 1 hr followed by incubation with immobilized antigen BSA-conjugate for 3 hrs by competitive ELISA relative to control; conditions: time 4.0 hrs

Structure (SMILES)	IC50 [1]	deltaG [2]
CO[C@@H]1O[C@H](CO)[C@H](O)[C@H](O[C@@H]2O[C@H](CO)[C@@H](O)[C@H](O[C@@H]3O[C@H](CO)[C@H](O)[C@H](O)[C@H]3O)[C@H]2NC(C)=O)[C@H]1O	538 µM	1.8 kcal/mol
CCCCCCO[C@@H]1O[C@H](CO)[C@@H](O[C@@H]2O[C@H](CO)[C@H](O)[C@H](O[C@@H]3O[C@H](CO)[C@@H](O[C@@H]4O[C@@H](C)[C@@H](O)[C@@H](O)[C@@H]4O)[C@H](O[C@@H]4O[C@H](CO)[C@H](O)[C@H](O)[C@H]4O)[C@H]3NC(C)=O)[C@H]2O)[C@H](O[C@@H]2O[C@@H](C)[C@@H](O)[C@@H](O)[C@@H]2O)[C@H]1NC(C)=O	23 µM	0 kcal/mol
CCCCCCO[C@@H]1O[C@H](CO)[C@@H](O[C@@H]2O[C@H](CO)[C@H](O)[C@H](O[C@@H]3O[C@H](CO)[C@@H](O)[C@H](O[C@@H]4O[C@H](CO)[C@H](O)[C@H](O)[C@H]4O)[C@H]3NC(C)=O)[C@H]2O)[C@H](O[C@@H]2O[C@@H](C)[C@@H](O)[C@@H](O)[C@@H]2O)[C@H]1NC(C)=O (stereo in doubt)	1350 µM	2.4 kcal/mol
CO[C@@H]1O[C@H](CO)[C@@H](O[C@@H]2O[C@@H](C)[C@@H](O)[C@@H](O)[C@@H]2O)[C@H](O[C@@H]2O[C@H](CO)[C@H](O)[C@H](O)[C@H]2O)[C@H]1NC(C)=O	3090 µM	0 kcal/mol
CCCCCCO[C@@H]1O[C@H](CO)[C@@H](O[C@@H]2O[C@H](CO)[C@H](O)[C@H](O[C@@H]3O[C@H](CO)[C@@H](O)[C@H](O[C@@H]4O[C@H](CO)[C@H](O)[C@H](O)[C@H]4O)[C@H]3NC(C)=O)[C@H]2O)[C@H](O)[C@H]1NC(C)=O	1200 µM	2.3 kcal/mol
CO[C@@H]1O[C@H](CO)[C@@H](O[C@@H]2O[C@@H](C)[C@H](O)[C@@H](O)[C@H]2O)[C@H](O[C@@H]2O[C@H](CO)[C@H](O)[C@H](O)[C@H]2O)[C@H]1NC(C)=O	7020 µM	0.5 kcal/mol

Source: ChEMBL document CHEMBL5143575, “Anti-Lea monoclonal antibody SPM 522 recognizes an extended Lea epitope” (Bioorg Med Chem, 2022)
